Results: ChEMBL document CHEMBL1201862, “PubChem BioAssay data set” (2004)
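Tested at 5 concentrations; 48 h exposure; 96-well plates; endpoints linearly interpolated, else capped at highest concentration. GI50 is the concentration that inhibits growth by half.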 Calls of active or inactive are those of the source. No stated cut-off is given here; in the data, active = GI50 up to about 1.1 µM and inactive = higher.

Columns and labels:
Assay in all cases: NCI-60 cell line screen, 48 h
CAKI-1 = system: CAKI-1
HOP-92 = system: HOP-92
M19-MEL = system: M19-MEL
KM12 = system: KM12
RPMI-8226 = system: RPMI-8226
NCI-H23 = system: NCI-H23
UACC-257 = system: UACC-257
ACHN = system: ACHN
SNB-19 = system: SNB-19
SN12C = system: SN12C
K562 = system: K562
U-251 = system: U-251
OVCAR-3 = system: OVCAR-3
SF-539 = system: SF-539
A549 = system: A549
786-0 = system: 786-0
HOP-62 = system: HOP-62
SK-OV-3 = system: SK-OV-3
NCI-H226 = system: NCI-H226
Malme-3M = system: Malme-3M
TK-10 = system: TK-10
SW-620 = system: SW-620
A498 = system: A498
M14 = system: M14
UO-31 = system: UO-31
SK-MEL-28 = system: SK-MEL-28
HT-29 = system: HT-29
MOLT-4 = system: MOLT-4
RXF 393 = system: RXF 393
HCC 2998 = system: HCC 2998
HCT-116 = system: HCT-116
DMS-273 = system: DMS-273
SNB-78 = system: SNB-78
LOX IMVI = system: LOX IMVI
SR = system: SR
HL-60 = system: HL-60
UACC-62 = system: UACC-62
OVCAR-8 = system: OVCAR-8
NCI-H522 = system: NCI-H522
LXFL 529 = system: LXFL 529
RXF 631 = system: RXF 631
OVCAR-4 = system: OVCAR-4
HCT-15 = system: HCT-15
XF498 = system: XF498
CCRF-CEM = system: CCRF-CEM
SF-295 = system: SF-295
NCI-H460 = system: NCI-H460
OVCAR-5 = system: OVCAR-5
DMS-114 = system: DMS-114
SK-MEL-2 = system: SK-MEL-2
IGROV-1 = system: IGROV-1
EKVX = system: EKVX
KM-20L2 = system: KM-20L2
DLD-1 = system: DLD-1
SF-268 = system: SF-268
COLO 205 = system: COLO 205
SK-MEL-5 = system: SK-MEL-5
SNB-75 = system: SNB-75
HOP-18 = system: HOP-18

SMILES: N#Cc1sc2nc3c(c(-c4ccccc4)c2c1N)CCCC3
- GI50 (CAKI-1): > 100 µM (inactive)
- GI50 (HOP-92): 30.1 µM (inactive)
- GI50 (M19-MEL): > 100 µM (inactive)
- GI50 (KM12): > 100 µM (inactive)
- GI50 (RPMI-8226): > 100 µM (inactive)
- GI50 (NCI-H23): > 100 µM (inactive)
- GI50 (UACC-257): > 100 µM (inactive)
- GI50 (ACHN): 76.9 µM (inactive)
- GI50 (SNB-19): 56.8 µM (inactive)
- GI50 (SN12C): > 100 µM (inactive)
- GI50 (K562): > 100 µM (inactive)
- GI50 (U-251): 39.8 µM (inactive)
- GI50 (OVCAR-3): > 10 µM (inactive)
- GI50 (SF-539): 23.9 µM (inactive)
- GI50 (A549): > 100 µM (inactive)
- GI50 (786-0): 46 µM (inactive)
- GI50 (HOP-62): > 10 µM (inactive)
- GI50 (SK-OV-3): 39.4 µM (inactive)
- GI50 (NCI-H226): > 100 µM (inactive)
- GI50 (Malme-3M): > 100 µM (inactive)
- GI50 (TK-10): > 100 µM (inactive)
- GI50 (SW-620): > 100 µM (inactive)
- GI50 (A498): > 100 µM (inactive)
- GI50 (M14): > 10 µM (inactive)
- GI50 (UO-31): > 100 µM (inactive)
- GI50 (SK-MEL-28): > 100 µM (inactive)
- GI50 (HT-29): > 100 µM (inactive)
- GI50 (MOLT-4): > 100 µM (inactive)
- GI50 (RXF 393): 41.8 µM (inactive)
- GI50 (HCC 2998): > 100 µM (inactive)
- GI50 (HCT-116): 33.2 µM (inactive)
- GI50 (DMS-273): 57.9 µM (inactive)
- GI50 (SNB-78): 56 µM (inactive)
- GI50 (LOX IMVI): 48 µM (inactive)
- GI50 (SR): > 100 µM (inactive)
- GI50 (HL-60): > 100 µM (inactive)
- GI50 (UACC-62): > 100 µM (inactive)
- GI50 (OVCAR-8): > 100 µM (inactive)
- GI50 (NCI-H522): 66.5 µM (inactive)
- GI50 (LXFL 529): > 100 µM (inactive)
- GI50 (RXF 631): 9.25 µM (inactive)
- GI50 (OVCAR-4): > 100 µM (inactive)
- GI50 (HCT-15): 60.5 µM
- GI50 (XF498): 37.9 µM (inactive)
- GI50 (CCRF-CEM): > 100 µM (inactive)
- GI50 (SF-295): 22.1 µM (inactive)
- GI50 (NCI-H460): 55.2 µM (inactive)
- GI50 (OVCAR-5): > 100 µM (inactive)
- GI50 (DMS-114): 0.225 µM (active)
- GI50 (SK-MEL-2): > 100 µM (inactive)

SMILES: Cc1cc(C)c(C(=O)/C(=C/c2ccccc2)c2ccccc2)c(C)c1
- GI50 (IGROV-1): 86.3 µM (inactive)
- GI50 (EKVX): 72.8 µM (inactive)
- GI50 (CAKI-1): 36.8 µM (inactive)
- GI50 (HOP-92): 32.8 µM (inactive)
- GI50 (M19-MEL): 39.9 µM (inactive)
- GI50 (KM12): 55.2 µM (inactive)
- GI50 (KM-20L2): 42.2 µM (inactive)
- GI50 (RPMI-8226): 37.1 µM (inactive)
- GI50 (DLD-1): > 100 µM (inactive)
- GI50 (SF-268): 76.2 µM (inactive)
- GI50 (NCI-H23): 40 µM (inactive)
- GI50 (COLO 205): 91.6 µM (inactive)
- GI50 (UACC-257): 28.4 µM (inactive)
- GI50 (ACHN): 40.7 µM (inactive)
- GI50 (SNB-19): > 100 µM (inactive)
- GI50 (SN12C): 41.7 µM (inactive)
- GI50 (K562): 36.3 µM (inactive)
- GI50 (U-251): 39.9 µM (inactive)
- GI50 (OVCAR-3): 51.4 µM (inactive)
- GI50 (SF-539): 57.5 µM (inactive)
- GI50 (A549): 38.8 µM (inactive)
- GI50 (786-0): 56.2 µM (inactive)
- GI50 (HOP-62): > 100 µM (inactive)
- GI50 (SK-OV-3): > 100 µM (inactive)
- GI50 (NCI-H226): 50.9 µM (inactive)
- GI50 (Malme-3M): 18.2 µM (inactive)
- GI50 (TK-10): 93.5 µM (inactive)
- GI50 (SW-620): 60 µM (inactive)
- GI50 (M14): 49.2 µM (inactive)
- GI50 (UO-31): 56.8 µM (inactive)
- GI50 (SK-MEL-28): > 100 µM (inactive)
- GI50 (HT-29): 28.2 µM (inactive)
- GI50 (MOLT-4): 29 µM (inactive)
- GI50 (RXF 393): 46.2 µM (inactive)
- GI50 (HCT-116): 34.8 µM (inactive)
- GI50 (SR): 36.6 µM (inactive)
- GI50 (HL-60): 27.5 µM (inactive)
- GI50 (UACC-62): > 100 µM (inactive)
- GI50 (OVCAR-8): 46.5 µM (inactive)
- GI50 (NCI-H522): 26.2 µM (inactive)
- GI50 (SK-MEL-5): > 100 µM (inactive)
- GI50 (LXFL 529): 34.8 µM (inactive)
- GI50 (RXF 631): 29.9 µM (inactive)
- GI50 (OVCAR-4): 57.9 µM (inactive)
- GI50 (SNB-75): 82.2 µM (inactive)
- GI50 (HCT-15): 20.6 µM
- GI50 (XF498): 19.2 µM (inactive)
- GI50 (CCRF-CEM): 35.1 µM (inactive)
- GI50 (HOP-18): > 100 µM (inactive)
- GI50 (SF-295): 51.6 µM (inactive)
- GI50 (NCI-H460): 42.4 µM (inactive)
- GI50 (DMS-114): 35.6 µM (inactive)
- GI50 (SK-MEL-2): 11.3 µM (inactive)

SMILES: Cc1ccc(C)c(N2C(=O)C(=O)C(c3nc4ccccc4s3)/C(=N/NC(=O)NN)C2=O)c1 (stereo not drawn)
- GI50 (IGROV-1): > 100 µM (inactive)
- GI50 (EKVX): > 100 µM (inactive)
- GI50 (CAKI-1): > 100 µM (inactive)
- GI50 (HOP-92): > 100 µM (inactive)
- GI50 (M19-MEL): > 100 µM (inactive)
- GI50 (KM12): > 100 µM (inactive)
- GI50 (KM-20L2): > 100 µM (inactive)
- GI50 (DLD-1): > 100 µM (inactive)
- GI50 (SF-268): > 100 µM (inactive)
- GI50 (NCI-H23): > 100 µM (inactive)
- GI50 (COLO 205): > 100 µM (inactive)
- GI50 (UACC-257): > 100 µM (inactive)
- GI50 (ACHN): > 100 µM (inactive)
- GI50 (SNB-19): > 100 µM (inactive)
- GI50 (SN12C): > 100 µM (inactive)
- GI50 (U-251): > 100 µM (inactive)
- GI50 (OVCAR-3): > 100 µM (inactive)
- GI50 (SF-539): > 100 µM (inactive)
- GI50 (A549): > 100 µM (inactive)
- GI50 (786-0): > 100 µM (inactive)
- GI50 (HOP-62): > 100 µM (inactive)
- GI50 (SK-OV-3): > 100 µM (inactive)
- GI50 (NCI-H226): > 100 µM (inactive)
- GI50 (Malme-3M): > 100 µM (inactive)
- GI50 (TK-10): > 100 µM (inactive)
- GI50 (SW-620): > 100 µM (inactive)
- GI50 (A498): > 100 µM (inactive)
- GI50 (M14): > 100 µM (inactive)
- GI50 (UO-31): > 100 µM (inactive)
- GI50 (SK-MEL-28): > 100 µM (inactive)
- GI50 (HT-29): > 100 µM (inactive)
- GI50 (MOLT-4): > 100 µM (inactive)
- GI50 (RXF 393): > 100 µM (inactive)
- GI50 (HCC 2998): > 100 µM (inactive)
- GI50 (HCT-116): > 100 µM (inactive)
- GI50 (DMS-273): > 100 µM (inactive)
- GI50 (SNB-78): > 100 µM (inactive)
- GI50 (SR): > 100 µM (inactive)
- GI50 (HL-60): > 100 µM (inactive)
- GI50 (UACC-62): > 100 µM (inactive)
- GI50 (OVCAR-8): > 100 µM (inactive)
- GI50 (NCI-H522): > 100 µM (inactive)
- GI50 (SK-MEL-5): > 100 µM (inactive)
- GI50 (LXFL 529): > 100 µM (inactive)
- GI50 (RXF 631): > 100 µM (inactive)
- GI50 (OVCAR-4): > 100 µM (inactive)
- GI50 (SNB-75): > 100 µM (inactive)
- GI50 (HCT-15): > 100 µM
- GI50 (XF498): > 100 µM (inactive)
- GI50 (CCRF-CEM): > 100 µM (inactive)
- GI50 (HOP-18): > 100 µM (inactive)
- GI50 (SF-295): > 100 µM (inactive)
- GI50 (NCI-H460): > 100 µM (inactive)
- GI50 (DMS-114): > 100 µM (inactive)
- GI50 (SK-MEL-2): > 100 µM (inactive)
